“Also recorded” adds a separate entry of the source.
How the values were obtained:
Format in all cases: cell-based, porcine
[1] = system: LC3B-II and p62 in primary RPE monolayers; assay: Immunoblotting of LC3B-II and p62 in polarized primary RPE monolayers; conditions: A2E-laden RPE after mTOR inhibition; TO901317 1 μM 20 h, desipramine 10 μM 3 h
Experimental: RPE harvested from mouse eyecups were sonicated in lysis buffer with protease inhibitors for 10 min. Primary RPE on TRANSWELL filters were harvested and lysed with NE-PER nuclear and cytoplasmic extraction reagents (Thermo Scientific #78833) according to the manufacturer's recommendation. Protein concentrations were measured with DC assay (BioRad). […] Proteins were then transferred onto nitrocellulose membrane using IBLOT dry transfer system (INVITROGEN), blocked in 5% milk in TBS-T for 1 hour before incubating in primary antibody overnight at 4° C. Membranes were probed with antibodies to LC3B (1:3000, Novus NB600-1384 for pig and 1:500, Sigma L7543 for mouse), p62/SQSTM1 (1:1000, ARP03-GP62-C) and actin (1:5000, Santa Cruz) followed by horseradish peroxidase-conjugated secondary antibodies. Immunoblots were visualized by ECL substrate (Thermo Scientific) and quantified using Image Studio (LI-COR). […] Other drugs used were the mTOR inhibitors Torin 1 and Torin 2 (50 nM and 1.5 μM, respectively, for 2 h, TOCRIS), the vacuolar ATPase inhibitor bafilomycin A1 (100 nM for 2 h, EMD Millipore), the LXRα agonist TO901317 (1 μM for 20 h, Cayman Chemicals), the HDAC6 inhibitor trichostatin A (TSA, 500 nM, 16 h, Sigma) and the ASMase inhibitor desipramine (10 μM for 3 h, Sigma). To depolymerize MTs, cells were treated with 33 μM nocodazole for 30 minutes, followed by cold-treatment (4° C.) for 30 minutes (Kreitzer et al., 2003). At the concentrations and exposure times used, none of these drugs caused alterations in RPE cell morphology or physiology (monitored by TER measurements, ZO-1 and organelle marker staining). […] Conversion of LC3B-I to its lipidated form (LC3B-II) is an indicator of autophagosome biogenesis and p62 levels are a measure of autophagic flux (Klionsky et al., 2012).

[2] = system: primary RPE cells; assay: Live imaging of tandem fluorescent mRFP-GFP-LC3 (tfLC3), autophagic flux; conditions: RPE with A2E; 3 h drug incubation (TO901317 1 μM 20 h)
Experimental: RPE cells were transfected with EGFP-LC3 or tandem fluorescent mRFP-GFP-LC3 (Addgene) using the AMAXA NUCLEOFECTOR II (Lonza). Approximately 1.5 million cells and 5 μg of plasmid DNA were used for each transfection. Cells were plated either on serum-coated glass-bottom dishes (Mattek) or […] filters at confluence.
Andor IQ2 software was used for image acquisition and Imaris x64 (Bitplane) for image analysis. […] Trafficking data was collected from three separate transfections for a total of at least 12-30 movies captured for treatment. During image acquisition care was taken to maintain the same laser power, exposure and electron-multiplying gain settings. […] After background subtraction (using the background subtraction algorithm and identical automatic threshold for all images) and smoothing (Gaussian algorithm with identical threshold settings for all images), Spots and Tracks algorithms were used to identify vesicles and follow them through time and cell-space to obtain total track length and track displacement.
We used tandem fluorescent mRFP-GFP-LC3 (tfLC3) to monitor autophagy in primary RPE cells in real time.
We performed two initial screens: first, we compared the ability of functional inhibitors (fluoxetine and amitriptyline) with that of the lone structural ASMase inhibitor zoledronic acid in decreasing acetylated tubulin. Here, polarized RPE monolayers with or without A2E were treated with one of the three inhibitors (10 μM, 3 h). Desipramine as a positive control. At the end of the incubation period, cells were fixed and stained for acetylated tubulin, imaged and the amount of acetylated tubulin in the cells was quantified. Second, we evaluated three additional drugs (sertraline, astemizole and fexofenadine) for their abilities to increase autophagy in the RPE. Cells with or without bisretinoids were transfected with mRFP-GFP-LC3, starved to induce autophagy, treated with drugs and imaged as in FIG. 9D.

[3] = system: primary RPE monolayers; assay: Lysosome exocytosis (surface LAMP2) after 10% normal human serum; conditions: RPE with A2E, complement attack; short treatment with desipramine
Experimental: Cells were rinsed in recording medium (HBSS with 4.5 g/L glucose, 20 mM HEPES) and incubated with ionomycin or […] normal human serum (Quidel) for 10 min at 37° C. Filters were immediately transferred to ice and analyzed for surface LAMP2 or β-hex activity (see below).
Cells were stained with mouse monoclonal antibody to the lumenal domain of Lamp2 (Serotec, MCA2558, 1:500) (48) or C5b-9 (Novus, NBP1-05120, 1:100) at 4° C. for 30 min. The antibody was diluted in PBS supplemented with Ca^2+ and Mg^2++1% BSA. Cells were then fixed with 2% PFA for 5 min on ice, permeabilized, and stained for ZO-1 as detailed above. Alexa-conjugated secondary antibodies (INVITROGEN) were used at 1:500 for 30 min. Cells were imaged by confocal microscopy (Andor Revolution XD) using a 60× 1.4 NA oil objective. For each set of experiments, the laser power, voltage and offset were identical for a given fluorophore. Quantification of Lamp2 staining was performed by obtaining the total fluorescence using the surface tool in Imaris (Bitplane).

[4] = system: ceramide in primary RPE; assay: Immunofluorescence staining for ceramide; conditions: desipramine treatment
Experimental: ALEXAFLUOR secondary antibodies were used at 1:500 and rhodamine-phalloidin (Cytoskeleton, PHDR1) at 1:200. Filters were mounted under coverslips on glass slides under VECTASHIELD (Vector labs), sealed and visualized with Andor Revolution XD spinning disk confocal microscope using a 60×1.4 NA oil objective with identical exposures and gains for each antibody. Acetylated tubulin-labeled stable microtubules (≥5 μm in length) after nocodazole treatment were analyzed manually in the Surpass mode of Imaris (Bitplane).

CNCCCN1c2ccccc2CCc2ccccc21 [desipramine]
LC3B-II levels / autophagosome biogenesis (immunoblot) [1]: increased LC3B-II levels in RPE with A2E comparable to those in control cells | p62 levels / autophagic flux (immunoblot) [1]: decreased p62 levels in cells with A2E | autophagic flux / autophagosome-lysosome fusion (tfLC3 EGFP:mRFP) [2]: corrected defects in autophagosome-lysosome fusion; also recorded: completely reversed the autophagic block induced by A2E | lysosome exocytosis [3]: restored lysosome exocytosis | ceramide levels [4]: decreased ASMase activity and ceramide levels

Source: US10124008B2, “Use of inhibitors of acid sphingomyelinase to treat acquired and inherited retinal degenerations” (Wisconsin Alumni Research Foundation, priority 2014, dated 2018)
